{
  "source": "patent US5674872A",
  "about": "“Treatment of ovarian cancer” (SmithKline Beecham Corporation, priority 1995, dated 1997)",
  "key": {"[1]": {"experiment": "Stability of diluted topotecan solutions in plastic bags at room temperature", "assay_type": "physicochemical", "protocol": "Solution Preparation--When the 5 mg vial is reconstituted with 2 ml of Sterile Water for Injection, USP, each ml will contain 2.5 mg of topotecan as the base and 50 mg of mannitol, USP. Topotecan must not be diluted or mixed with buffered solutions because of solubility and stability considerations.\nStability--Shelf life surveillance of the intact vials is ongoing. Because the single-use lyophilized dosage form contains no antibacterial preservatives, it is advised that the reconstituted solution be discarded eight hours after initial entry into the vial. Futher dilutions of the reconstituted solution to concentrations of 0.02 mg/ml and 0.1 mg.ml in 5% Dextrose Injection, USP, (\"D5W\") or 0.9% Sodium Chloride Injection, USP, (\"NS\") in plastic bags stored at room temperature yielded the following stability results: […]"}, "[2]": {"experiment": "Stability of diluted topotecan in a hang-bag", "assay_type": "physicochemical", "conditions": "24 hours", "protocol": "Topotecan diluted in saline (10 ug/ml or 500 ug/ml) or dextrose (6.7 ug/ml or 330 ug/ml) is stable in a hang-bag for 24 hours with at least 95% recovery."}, "[3]": {"tested_on": "ovarian cancer", "experiment": "Treatment of a human patient with ovarian cancer, tumor size regression evaluated by CAT scan", "assay_type": "in vivo", "conditions": "one platinum-refractory patient, 1.5 mg/m^2/day i.v. for five consecutive days, sustained at least until the tenth treatment", "protocol": "One human patient with ovarian cancer, who was refractory to two previous platinum-containing regimens (i.e., cisplatin-cyclophosphamide combination regimen and treatment with single agent carboplatin), received a course of therapy comprising intravenous administration of 1.5 mg of topotecan/m^2 of body surface area per day for five consecutive days. This course of therapy was repeated […] nine more times to date at twenty-one day intervals (from the date of initiation of therapy) for a total of ten treatments. Tumor size regression was evaluated by CAT (computerized axial tomography) scan. […] At least until the tenth treatment, this clinically significant response was sustained, i.e., a greater than fifty percent (50%) tumor size regression was obtained."}},
  "data": [
    {"smiles": "CC[C@@]1(O)C(=O)OCc2c1cc1n(c2=O)Cc2cc3c(CN(C)C)c(O)ccc3nc2-1", "note": "[Topotecan, (S)-10[(dimethylamino)methyl]-4-ethyl-4,9-dihydroxy-1 H-pyrano[3',4':6,7]indolizino[1,2-b]quinolone-3,14(4 H,12 H)-dione]", "values": [
      {"measurement": "Percentage of Initial Topotecan Remaining in Solution", "setting": "[1]; D5W, 0.02 mg/ml, 0 hrs", "value": 100.00, "unit": "%"},
      {"measurement": "Percentage of Initial Topotecan Remaining in Solution", "setting": "[1]; D5W, 0.02 mg/ml, 6 hrs", "value": 99.29, "unit": "%"},
      {"measurement": "Percentage of Initial Topotecan Remaining in Solution", "setting": "[1]; D5W, 0.02 mg/ml, 24 hrs", "value": 102.30, "unit": "%"},
      {"measurement": "Percentage of Initial Topotecan Remaining in Solution", "setting": "[1]; D5W, 0.02 mg/ml, 48 hrs", "value": 101.98, "unit": "%"},
      {"measurement": "Percentage of Initial Topotecan Remaining in Solution", "setting": "[1]; D5W, 0.1 mg/ml, 0 hrs", "value": 100.00, "unit": "%"},
      {"measurement": "Percentage of Initial Topotecan Remaining in Solution", "setting": "[1]; D5W, 0.1 mg/ml, 6 hrs", "value": 99.68, "unit": "%"},
      {"measurement": "Percentage of Initial Topotecan Remaining in Solution", "setting": "[1]; D5W, 0.1 mg/ml, 24 hrs", "value": 98.16, "unit": "%"},
      {"measurement": "Percentage of Initial Topotecan Remaining in Solution", "setting": "[1]; D5W, 0.1 mg/ml, 48 hrs", "value": 97.91, "unit": "%"},
      {"measurement": "Percentage of Initial Topotecan Remaining in Solution", "setting": "[1]; NS, 0.02 mg/ml, 0 hrs", "value": 100.00, "unit": "%"},
      {"measurement": "Percentage of Initial Topotecan Remaining in Solution", "setting": "[1]; NS, 0.02 mg/ml, 6 hrs", "value": 98.58, "unit": "%"},
      {"measurement": "Percentage of Initial Topotecan Remaining in Solution", "setting": "[1]; NS, 0.02 mg/ml, 24 hrs", "value": 96.01, "unit": "%"},
      {"measurement": "Percentage of Initial Topotecan Remaining in Solution", "setting": "[1]; NS, 0.02 mg/ml, 48 hrs", "value": 102.03, "unit": "%"},
      {"measurement": "Percentage of Initial Topotecan Remaining in Solution", "setting": "[1]; NS, 0.1 mg/ml, 0 hrs", "value": 100.00, "unit": "%"},
      {"measurement": "Percentage of Initial Topotecan Remaining in Solution", "setting": "[1]; NS, 0.1 mg/ml, 6 hrs", "value": 97.71, "unit": "%"},
      {"measurement": "Percentage of Initial Topotecan Remaining in Solution", "setting": "[1]; NS, 0.1 mg/ml, 24 hrs", "value": 98.30, "unit": "%"},
      {"measurement": "Percentage of Initial Topotecan Remaining in Solution", "setting": "[1]; NS, 0.1 mg/ml, 48 hrs", "value": 98.35, "unit": "%"},
      {"measurement": "recovery (stable in a hang-bag)", "setting": "[2]; dextrose, 6.7 ug/ml or 330 ug/ml", "value": "at least 95%"},
      {"measurement": "recovery (stable in a hang-bag)", "setting": "[2]; saline, 10 ug/ml or 500 ug/ml", "value": "at least 95%"},
      {"measurement": "tumor size regression, sustained", "setting": "[3]", "value": "> 50", "unit": "%"}
    ]}
  ]
}
